Test results taken from patent publication US11040031B2, “Pyrazole derivatives as MALT1 inhibitors” (Janssen Pharmaceutica NV, priority 2018, dated 2021).

Target: T1, full-length MALT1 protein (Strep-MALT1(1-824)-His) (Homo sapiens, UniProt Q9UDY8)
T1 sequence (Q9UDY8 1-824): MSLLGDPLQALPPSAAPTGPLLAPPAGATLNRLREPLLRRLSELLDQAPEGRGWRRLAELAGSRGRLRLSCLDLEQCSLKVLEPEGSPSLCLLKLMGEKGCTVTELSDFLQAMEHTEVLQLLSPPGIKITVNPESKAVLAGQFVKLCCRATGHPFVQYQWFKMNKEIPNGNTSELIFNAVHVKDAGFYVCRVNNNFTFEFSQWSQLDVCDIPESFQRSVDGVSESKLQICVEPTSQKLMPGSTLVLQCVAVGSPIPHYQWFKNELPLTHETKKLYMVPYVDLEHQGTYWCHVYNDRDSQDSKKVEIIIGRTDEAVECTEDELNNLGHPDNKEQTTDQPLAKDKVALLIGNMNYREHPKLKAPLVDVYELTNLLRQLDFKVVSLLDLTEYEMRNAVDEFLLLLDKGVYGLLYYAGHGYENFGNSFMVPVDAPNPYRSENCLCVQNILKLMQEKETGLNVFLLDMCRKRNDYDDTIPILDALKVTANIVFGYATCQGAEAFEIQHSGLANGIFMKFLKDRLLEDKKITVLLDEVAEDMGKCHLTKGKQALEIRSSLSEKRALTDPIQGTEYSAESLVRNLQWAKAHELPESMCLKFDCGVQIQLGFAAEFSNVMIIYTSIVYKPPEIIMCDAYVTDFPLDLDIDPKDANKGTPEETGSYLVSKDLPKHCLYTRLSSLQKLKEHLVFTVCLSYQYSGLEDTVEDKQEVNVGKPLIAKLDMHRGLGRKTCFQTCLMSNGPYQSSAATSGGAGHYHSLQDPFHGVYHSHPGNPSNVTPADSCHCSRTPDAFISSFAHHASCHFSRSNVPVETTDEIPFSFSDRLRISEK
Experiment: biochemical
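Note: fluorogenic LRSR-AMC substrate cleavage by MALT1, 50 min compound preincubation then 4 h reaction at RT, 11-point dilution from 30 µM, scaled between enzyme-free and untreated enzyme controls.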

Compound	IC50
CC(C)c1ccccc1-n1ncc(C(=O)Nc2cnc(-n3nccn3)c(Cl)c2)c1C(F)(F)F [Cpd 76, N-(5-chloro-6-(2H-1,2,3-triazol-2-yl)pyridin-3-yl)-1-(2-isopropylphenyl)-5-(trifluoromethyl)-1H-pyrazole-4-carboxamide]	676 nM
O=C(Nc1cnc(-n2nccn2)c(Cl)c1)c1cnn(-c2ccc(F)c(F)c2)c1C(F)(F)F [Cpd 78, N-(5-chloro-6-(2H-1,2,3-triazol-2-yl)pyridin-3-yl)-1-(3,4-difluorophenyl)-5-(trifluoromethyl)-1H-pyrazole-4-carboxamide]	646 nM
N#Cc1cc(NC(=O)c2cnn(-c3ncc(Br)cc3Cl)c2C(F)(F)F)cnc1-n1nccn1 [Cpd 30, 1-(5-bromo-3-chloropyridin-2-yl)-N-(5-cyano-6-(2H-1,2,3-triazol-2-yl)pyridin-3-yl)-5-(trifluoromethyl)-1H-pyrazole-4-carboxamide]	708 nM
O=C(Nc1cnc(-n2nccn2)c(Cl)c1)c1cnn(-c2cc(F)ccc2Cl)c1C(F)(F)F [Cpd 79, 1-(2-chloro-5-fluorophenyl)-N-(5-chloro-6-(2H-1,2,3-triazol-2-yl)pyridin-3-yl)-5-(trifluoromethyl)-1H-pyrazole-4-carboxamide]	380 nM
Cc1cncc(-n2ncc(C(=O)Nc3cnc(-n4nccn4)c(Cl)c3)c2C(F)(F)F)c1 [Cpd 16, N-(5-Chloro-6-(2H-1,2,3-triazol-2-yl)pyridin-3-yl)-1-(5-methylpyridin-3-yl)-5-(trifluoromethyl)-1H-pyrazole-4-carboxamide]	1700 nM
O=C(Nc1cnc(-n2nccn2)c(Cl)c1)c1cnn(-c2ccncc2)c1C(F)F [Cpd 25, N-(5-chloro-6-(2H-1,2,3-triazol-2-yl)pyridin-3-yl)-5-(difluoromethyl)-1-(pyridin-4-yl)-1H-pyrazole-4-carboxamide]	2950 nM
COc1ccnc(-n2ncc(C(=O)Nc3cnc(-n4nccn4)c(C#N)c3)c2C(F)(F)F)c1Cl [Cpd 66, 1-(3-chloro-4-methoxypyridin-2-yl)-N-(5-cyano-6-(2H-1,2,3-triazol-2-yl)pyridin-3-yl)-5-(trifluoromethyl)-1H-pyrazole-4-carboxamide]	3980 nM
Cc1c(F)ccc(-n2ncc(C(=O)Nc3cnc(-n4nccn4)c(Cl)c3)c2C(F)(F)F)c1C [Cpd 77, N-(5-chloro-6-(2H-1,2,3-triazol-2-yl)pyridin-3-yl)-1-(4-fluoro-2,3-dimethylphenyl)-5-(trifluoromethyl)-1H-pyrazole-4-carboxamide]	891 nM
COc1cc(-n2ncc(C(=O)Nc3cnc(-n4nccn4)c(C#N)c3)c2C(F)(F)F)ccn1 [Cpd 41, N-(5-Cyano-6-(2H-1,2,3-triazol-2-yl)pyridin-3-yl)-1-(2-methoxypyridin-4-yl)-5-(trifluoromethyl)-1H-pyrazole-4-carboxamide]	2040 nM
N#Cc1cc(NC(=O)c2cnn(-c3ccnc(Cl)c3)c2C(F)(F)F)cnc1-n1nccn1 [Cpd 39, 1-(2-chloropyridin-4-yl)-N-(5-cyano-6-(2H-1,2,3-triazol-2-yl)pyridin-3-yl)-5-(trifluoromethyl)-1H-pyrazole-4-carboxamide]	457 nM
O=C(Nc1cnc(-n2nccn2)c(Cl)c1)c1cnn(-c2ccccn2)c1C(F)(F)F [Cpd 8, N-(5-Chloro-6-(2H-1,2,3-triazol-2-yl)pyridin-3-yl)-1-(pyridin-2-yl)-5-(trifluoromethyl)-1H-pyrazole-4-carboxamide]	1230 nM
N#Cc1cnccc1-n1ncc(C(=O)Nc2cnc(-n3nccn3)c(C#N)c2)c1C(F)(F)F [Cpd 46, N-(5-cyano-6-(2H-1,2,3-triazol-2-yl)pyridin-3-yl)-1-(3-cyanopyridin-4-yl)-5-(trifluoromethyl)-1H-pyrazole-4-carboxamide]	479 nM
O=C(Nc1cnc(-n2nccn2)c(Cl)c1)c1cnn(-c2ncc(F)cc2Cl)c1C(F)(F)F [Cpd 105, 1-(3-chloro-5-fluoropyridin-2-yl)-N-(5-chloro-6-(2H-1,2,3-triazol-2-yl)pyridin-3-yl)-5-(trifluoromethyl)-1H-pyrazole-4-carboxamide]	537 nM
Cc1cccc(F)c1-n1ncc(C(=O)Nc2cnc(-n3nccn3)c(Cl)c2)c1C(F)(F)F [Cpd 92, N-(5-chloro-6-(2H-1,2,3-triazol-2-yl)pyridin-3-yl)-1-(2-fluoro-6-methylphenyl)-5-(trifluoromethyl)-1H-pyrazole-4-carboxamide]	501 nM
COc1ccc(-n2ncc(C(=O)Nc3cnc(-n4nccn4)c(Cl)c3)c2C(F)(F)F)cn1 [Cpd 13, N-(5-Chloro-6-(2H-1,2,3-triazol-2-yl)pyridin-3-yl)-1-(6-methoxypyridin-3-yl)-5-(trifluoromethyl)-1H-pyrazole-4-carboxamide]	1700 nM

Continued, values first:

IC50	Compound
1120 nM	Nc1ccc(C(F)(F)F)c(-n2ncc(C(=O)Nc3cnc(-n4nccn4)c(Cl)c3)c2C(F)(F)F)n1 [Cpd 192, 1-(6-amino-3-(trifluoromethyl)pyridin-2-yl)-N-(5-chloro-6-(2H-1,2,3-triazol-2-yl)pyridin-3-yl)-5-(trifluoromethyl)-1H-pyrazole-4-carboxamide]
3160 nM	Cc1ccnnc1-n1ncc(C(=O)Nc2cnc(-n3nccn3)c(Cl)c2)c1C(F)(F)F [Cpd 159, N-(5-chloro-6-(2H-1,2,3-triazol-2-yl)pyridin-3-yl)-1-(4-methylpyridazin-3-yl)-5-(trifluoromethyl)-1H-pyrazole-4-carboxamide]
447 nM	Cc1cc(N)ncc1-n1ncc(C(=O)Nc2cnc(-n3nccn3)c(C#N)c2)c1C(F)(F)F [Cpd 190, 1-(6-amino-4-methylpyridin-3-yl)-N-(5-cyano-6-(2H-1,2,3-triazol-2-yl)pyridin-3-yl)-5-(trifluoromethyl)-1H-pyrazole-4-carboxamide]
794 nM	N#Cc1cc(NC(=O)c2cnn(-c3ccc(F)nc3)c2C(F)(F)F)cnc1-n1nccn1 [Cpd 123, N-(5-cyano-6-(2H-1,2,3-triazol-2-yl)pyridin-3-yl)-1-(6-(fluoro)pyridin-3-yl)-5-(trifluoromethyl)-1H-pyrazole-4-carboxamide]
174 nM	Cc1c(-n2ncc(C(=O)Nc3cnc(-n4nccn4)c(Cl)c3)c2C(F)(F)F)ccnc1N [Cpd 199, 1-(2-amino-3-methylpyridin-4-yl)-N-(5-chloro-6-(2H-1,2,3-triazol-2-yl)pyridin-3-yl)-5-(trifluoromethyl)-1H-pyrazole-4-carboxamide]
363 nM	N#Cc1cc(NC(=O)c2cnn(-c3ccc(F)cc3C(F)(F)F)c2C(F)(F)F)cnc1-n1nccn1 [Cpd 115, N-(5-cyano-6-(2H-1,2,3-triazol-2-yl)pyridin-3-yl)-1-(4-fluoro-2-(trifluoromethyl)phenyl)-5-(trifluoromethyl)-1H-pyrazole-4-carboxamide]
380 nM	N#Cc1cc(NC(=O)c2cnn(-c3nc(N)ccc3C(F)(F)F)c2C(F)(F)F)cnc1-n1nccn1 [Cpd 187, 1-(6-amino-3-(trifluoromethyl)pyridin-2-yl)-N-(5-cyano-6-(2H-1,2,3-triazol-2-yl)pyridin-3-yl)-5-(trifluoromethyl)-1H-pyrazole-4-carboxamide]
158 nM	Cc1cnc([C@H]2CCCO2)cc1-n1ncc(C(=O)Nc2cnc(-n3nccn3)c(Cl)c2)c1C(F)(F)F (single isomer, unassigned) [Cpd 203, (*R)—N-(5-chloro-6-(2H-1,2,3-triazol-2-yl)pyridin-3-yl)-1-(5-methyl-2-(tetrahydrofuran-2-yl)pyridin-4-yl)-5-(trifluoromethyl)-1H-pyrazole-4-carboxamide]
741 nM	O=C(Nc1cnc(-n2nccn2)c(Cl)c1)c1cnn(-c2cccc(Br)n2)c1C(F)(F)F [Cpd 202, 1-(6-bromopyridin-2-yl)-N-(5-chloro-6-(2H-1,2,3-triazol-2-yl)pyridin-3-yl)-5-(trifluoromethyl)-1H-pyrazole-4-carboxamide]
1170 nM	N#Cc1cc(NC(=O)c2cnn(-c3ccc(N)nc3)c2C(F)(F)F)cnc1-n1nccn1 [Cpd 194, 1-(6-aminopyridin-3-yl)-N-(5-cyano-6-(2H-1,2,3-triazol-2-yl)pyridin-3-yl)-5-(trifluoromethyl)-1H-pyrazole-4-carboxamide]
5620 nM	O=C(Nc1cnc(-n2nccn2)c(Cl)c1)c1cnn(-c2cccc(-c3ccco3)n2)c1C(F)(F)F [Cpd 207, N-(5-chloro-6-(2H-1,2,3-triazol-2-yl)pyridin-3-yl)-1-(6-(furan-2-yl)pyridin-2-yl)-5-(trifluoromethyl)-1H-pyrazole-4-carboxamide]
437 nM	CNc1cccc(-n2ncc(C(=O)Nc3cnc(-n4nccn4)c(C#N)c3)c2C(F)(F)F)n1 [Cpd 189, N-(5-cyano-6-(2H-1,2,3-triazol-2-yl)pyridin-3-yl)-1-(6-(methylamino)pyridin-2-yl)-5-(trifluoromethyl)-1H-pyrazole-4-carboxamide]
372 nM	CN1CCCc2c1cccc2-n1ncc(C(=O)Nc2cnc(-n3nccn3)c(C#N)c2)c1C(F)(F)F [Cpd 127, N-(5-cyano-6-(2H-1,2,3-triazol-2-yl)pyridin-3-yl)-1-(1-methyl-1,2,3,4-tetrahydroquinolin-5-yl)-5-(trifluoromethyl)-1H-pyrazole-4-carboxamide]
